Source: patent publication EP2561858B1, “A composition for activating hair follicle stem cells to stimulate hair growth” (LABO Cosprophar AG, priority 2011, dated 2013)

How the values were obtained:
[1] = molecular target: T1, 5-alpha reductase activity II (Homo sapiens, UniProt P31213); experiment: 5-alpha reductase inhibition in skin fibroblasts (marked Testosterone to DHT, TLC), type II; assay type: cell-based; settings: 100µM, 1 hour at 37°C preincubation, 3 hr with marked Testosterone
T1 construct: skin fibroblasts, cells that contain different types of enzymes involved in the biosynthesis of steroids, were used; endogenous in cells; host or cells: skin fibroblasts
T1 sequence (P31213 1-254): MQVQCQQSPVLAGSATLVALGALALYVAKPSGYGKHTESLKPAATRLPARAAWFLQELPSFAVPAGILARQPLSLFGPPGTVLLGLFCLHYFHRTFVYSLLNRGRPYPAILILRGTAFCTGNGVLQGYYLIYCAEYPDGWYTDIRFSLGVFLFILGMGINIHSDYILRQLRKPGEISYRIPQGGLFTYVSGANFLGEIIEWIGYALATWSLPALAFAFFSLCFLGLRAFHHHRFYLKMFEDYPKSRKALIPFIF
Procedure: (§1) In the experiment, skin fibroblasts, cells that contain different types of enzymes involved in the biosynthesis of steroids, were used. These cells represent a good system for the evaluation of the kinetic parameters of enzyme inhibitors such as 5-alpha reductase, delegated to steroid metabolism.
(§2) Fibroblasts were or were not incubated with 100µM of active Biochanin-A for 1 hour at 37°C before the addition of a known quantity of marked Testosterone, at the concentration of 1.5 micromoles. After 3 hr we proceeded with the extraction of the radioactive steroids. The amount of marked Testosterone and DHT are determined by TLC (Thin Layer Chromatography) to quantify 5-alpha reductase activity.

[2] = molecular target: T2, 5-alpha reductase activity I (Homo sapiens, UniProt P18405); experiment: 5-alpha reductase inhibition in skin fibroblasts (marked Testosterone to DHT, TLC), type I; assay type: cell-based; settings: 100µM, 1 hour at 37°C preincubation, 3 hr with marked Testosterone
T2 construct: skin fibroblasts, cells that contain different types of enzymes involved in the biosynthesis of steroids, were used; endogenous in cells; host or cells: skin fibroblasts
T2 sequence (P18405 1-259): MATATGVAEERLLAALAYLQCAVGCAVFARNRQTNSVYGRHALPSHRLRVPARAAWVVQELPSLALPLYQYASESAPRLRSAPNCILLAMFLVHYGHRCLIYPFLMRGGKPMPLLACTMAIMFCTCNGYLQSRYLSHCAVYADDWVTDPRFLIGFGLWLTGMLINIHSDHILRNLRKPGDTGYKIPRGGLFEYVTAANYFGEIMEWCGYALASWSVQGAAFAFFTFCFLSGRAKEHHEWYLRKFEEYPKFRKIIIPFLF
Procedure: as §1, §2

## COc1ccc(-c2coc3cc(O)cc(O)c3c2=O)cc1 [Biochanin-A]
[1]
  5-alpha reductase activity II compared to the negative control: -93%
[2]
  5-alpha reductase activity I compared to the negative control: -64%
